The source of these data is patent US8580829B2 (Boehringer Ingelheim International GmbH, priority 2010, dated 2013).

The subject of test [1] is apoE/LDL-R double knockout mice. Particulars: oral dosing, high-fat diet from 2 months of age to 6 months; cited from earlier work.
Test [2] relates to ApoE−/−xCD4dnTβRII mice. Particulars: infusion, treated for four weeks; cited from earlier work.
Test [3] deals with human glomerulonephritis. Particulars: clinical trial; cited from earlier work.
Test [4] relates to biomarkers for myocardial infarction risk. The note with it: clinical trial; cited from earlier work.
Test [5] has as its target T1, recombinant human FLAP protein (Homo sapiens, UniProt P20292).
T1 construct: made in house; host or cells: Sf9 insect cells (100,000 x g membrane fraction)
T1 sequence (P20292 1-161): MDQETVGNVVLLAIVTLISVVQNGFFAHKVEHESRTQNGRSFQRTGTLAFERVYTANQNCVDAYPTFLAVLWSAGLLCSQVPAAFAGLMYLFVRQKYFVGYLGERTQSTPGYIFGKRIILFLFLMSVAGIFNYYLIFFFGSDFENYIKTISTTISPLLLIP
Kind of test: FLAP binding assay (Scintillation Proximity Assay, displacement of [125I]L-691,831). The note with it: recombinant human FLAP membranes, [125I]L-691,831 probe; read-out: FLAP SPA IC50. Put shortly:
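WGA scintillation proximity beads were stirred 1 h with 5 μg of FLAP-containing membrane protein. The membranes came from baculovirus Sf9 cells, Dounce-lysed and spun to a 100,000×g pellet in buffer at pH 7.5.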
A general note: SPA uses beads or plates that emit light when radiolabelled molecules are held near them.

The test system of test [6] is synthesis of LTB4 in human whole blood. Briefly: human whole blood LTB4 production inhibition assay. The note with it: Homo sapiens, heparinized human whole blood, calcimycin 20 μM; read-out: hWB LTB4 IC50. Type of test: cell-based. Put shortly: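 LTB4 in plasma was quantified by HTRF immunoassay. Before that, compound-treated heparinized whole blood (15 min, 37 °C) received 20 μM final calcimycin for a further 30 min at 37 °C, followed by centrifugation at 1500×g.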

For the compound `CC(C)c1ccc2c(c1)c(SC(C)(C)C)c(CC(C)(C)C(=O)O)n2Cc1ccc(Cl)cc1` [MK-886], in test [1], the “decrease in plaque coverage in the aorta” value is 56% and the “decrease in plaque coverage in the aortic root” value is listed as 43%. For the same compound, the “decrease in plaque area in the aortic root” value in test [2] is on record as approximately 40%. Consider `CC(C)(C)Sc1c(CC(C)(C)C(=O)O)n(Cc2ccc(Cl)cc2)c2ccc(OCc3ccc4ccccc4n3)cc12` [MK-591], for which the effect on proteinuria entry in test [3] is on record as “reduce proteinuria”.

In the case of `O=C(O)[C@@H](c1ccc(OCc2ccc3ccccc3n2)cc1)C1CCCC1` [DG-031], in test [4], the “effect on biomarkers for myocardial infarction risk” value is “dose-dependent suppression of several biomarkers”.

For orientation: IC50 means the concentration at which inhibition is half-maximal. For the compound `CC(CN(C)C)n1cc(-c2nc(C3(c4ccc(-c5cnc(N)nc5)cc4)CCC3)no2)cn1` (stereo not drawn) [Example 249, 5-[4-(1-{5-[1-(2-Dimethylamino-1-methyl-ethyl)-1H-pyrazol-4-yl]-[1,2,4]oxadiazol-3-yl}-cyclobutyl)-phenyl]-pyrimidin-2-ylamine], the results for the IC50 in test [5] and in test [6] were 7.8 nM and 69 nM, respectively. `COc1ccncc1-c1nc(C2(c3ccc(-c4cnc(N)nc4)cc3)CCC2)no1` [Example 168, 5-(4-{1-[5-(4-Methoxy-pyridin-3-yl)-1,2,4-oxadiazol-3-yl]-cyclobutyl}-phenyl)-pyrimidin-2-ylamine]: the results for the IC50 in test [5] and in test [6] were 5.5 nM and 230 nM, respectively. On to `COc1cc(-c2nc(C3(c4ccc(-c5cnc(N)nc5)cc4)CCC3)no2)ccc1O` [Example 98, 4-(3-{1-[4-(2-Amino-pyrimidin-5-yl)-phenyl]-cyclobutyl}-1,2,4-oxadiazol-5-yl)-2-methoxy-phenol], for which the results for the IC50 in test [5] and in test [6] were 2.3 nM and 110 nM, respectively. For the compound `Nc1ncc(-c2ccc(C3(c4noc(-c5c[nH]c(=O)[nH]5)n4)CCC3)cc2)cn1` [Example 9, 4-(3-{1-[4-(2-Amino-pyrimidin-5-yl)-phenyl]-cyclobutyl}-1,2,4-oxadiazol-5-yl)-1,3-dihydro-imidazol-2-one], the figures for the IC50 in test [5] and in test [6] were 7 nM and 2000 nM, respectively. For the compound `Nc1ncc(-c2ccc(C3(c4noc(-c5cccn(CCO)c5=O)n4)CCC3)cc2)cn1` [Example 67, 3-(3-{1-[4-(2-Amino-pyrimidin-5-yl)-phenyl]-cyclobutyl}-1,2,4-oxadiazol-5-yl)-1-(2-hydroxy-ethyl)-1H-pyridin-2-one], the IC50 in test [5] worked out at 12 nM; in test [6], 290 nM. Turning to `CN(CCO)c1cnc(-c2nc(C3(c4ccc(-c5cnc(N)nc5)cc4)CCC3)no2)cn1` [Example 61, 2-{[5-(3-{1-[4-(2-amino-pyrimidin-5-yl)-phenyl]-cyclobutyl}-1,2,4-oxadiazol-5-yl)-pyrazin-2-yl]-methyl-amino}-ethanol], the IC50 in test [5] amounted to 1.5 nM; in test [6], 53 nM. Regarding `Cc1nc(-c2ccc(C3(c4noc(-c5cnn(C)c5)n4)CCC3)cc2)cnc1N` [Example 222, 3-Methyl-5-(4-{1-[5-(1-methyl-1H-pyrazol-4-yl)-[1,2,4]oxadiazol-3-yl]-cyclobutyl}-phenyl)-pyrazin-2-ylamine], the IC50 in test [5] was determined as 2.2 nM; in test [6], 44 nM. Consider `Nc1ncc(-c2ccc(C3(c4noc(-c5cccnc5N)n4)CCC3)cc2)cn1` [Example 4, 5-(4-{1-[5-(2-Amino-pyridin-3-yl)-1,2,4-oxadiazol-3-yl]-cyclobutyl}-phenyl)-pyrimidin-2-ylamine], for which the IC50 is 4.6 nM in test [5] and 720 nM in test [6].
